The values below come from patent publication US10858360B2, “Tricyclic gyrase inhibitors” (priority 2011, dated 2020).

Converted amounts (≈) assume the structure as drawn. Bounds are passed on as bounds.

One assay relates to E. coli ATCC 25922. Description: MIC, E. coli ATCC 25922. The assay is classed as cell-based. The conditions noted are these: Alamar Blue read after overnight incubation at 35° C.; for MIC: Escherichia coli, ATCC25922, E. coli; for MIC Ec: E. coli. For orientation: The colour change of resazurin is a common sign of viable cells or microbes.
In a further assay the test system is S. aureus ATCC 13709. Description: MIC, S. aureus ATCC 13709 (Alamar Blue broth microdilution). The assay is classed as cell-based. The conditions noted are these: Alamar Blue read after overnight incubation at 35° C.; for MIC: Staphylococcus aureus, ATCC13709, S. aureus; for MIC Sa: S. aureus.

On to `CNc1cccc2c1[nH]c1nc(Sc3cnc4cccnc4c3)nc(N3CCC4(CCNCC4)C3)c12` [1.56], for which the minimal inhibitory concentration (MIC) was found to be 32 µg/mL (≈ 64.4 µM) against E. coli ATCC 25922 and 4 µg/mL (≈ 8.05 µM) in the assay on S. aureus ATCC 13709.

As for `COc1cccc2c1[nH]c1nc(Sc3cnc4ccc[n+]([O-])c4c3)nc(N3CC(N)C3)c12` [1.77], the MIC against E. coli ATCC 25922 was > 64 µg/mL; against S. aureus ATCC 13709, 2 µg/mL (≈ 4.49 µM).

As for `CNc1cc(F)cc2c1[nH]c1nc(Oc3cnc(SC)nc3)nc(N3CC4CCNC4C3)c12` (centres unmarked) [4.198], the MIC with E. coli ATCC 25922 and against S. aureus ATCC 13709 was ≤ 0.5 µg/mL throughout.

On to `CNc1ncnc2c1[nH]c1nc(-c3cncnc3)nc(N3CC4C(N)C4C3)c12` (centres unmarked) [7.11], for which the MIC in the assay on E. coli ATCC 25922 and against S. aureus ATCC 13709 was > 64 µg/mL throughout.

For `CNc1cc(F)cc2c1[nH]c1nc(Oc3ccc(C#N)nc3)nc(N3CC4CC(N)C4C3)c12` (centres unmarked) [4.332], the “MIC Ec” value with E. coli ATCC 25922 is ≤0.5 µg/mL. Besides, in the assay on S. aureus ATCC 13709, the “MIC Sa” value was ≤0.5 µg/mL.

On to `CNc1cc(F)cc2c1[nH]c1nc(Oc3cncnc3)nc(N3CC4CC4(CN)C3)c12` (centres unmarked) [4.027], for which the MIC against E. coli ATCC 25922 is 1 µg/mL (≈ 2.38 µM); with S. aureus ATCC 13709, ≤ 0.5 µg/mL.

`CNc1cccc2c1[nH]c1nc(Oc3cncc(C#N)c3)nc(N3CCN(CCN)CC3)c12` [3.55]: the MIC is > 64 µg/mL against E. coli ATCC 25922 and 64 µg/mL (≈ 144 µM) against S. aureus ATCC 13709.

With `CNc1cc(F)cc2c1[nH]c1nc(Oc3ccc4sc(C)nc4c3)nc(N3CC4CCC(N)C4C3)c12` (centres unmarked) [4.322], the “MIC Ec” value against E. coli ATCC 25922 was ≤0.5 µg/mL. Moreover, the “MIC Sa” value in the assay with S. aureus ATCC 13709 is ≤0.5 µg/mL.

Take `CNc1cccc2c1[nH]c1nc(Oc3cncc(C#N)c3)nc(N3CC[C@@H](N)C3)c12` [3.3]: the minimum inhibitory concentration (MIC) in the assay with E. coli ATCC 25922 worked out at 1 µg/mL (≈ 2.5 µM); against S. aureus ATCC 13709, 0.5 µg/mL (≈ 1.25 µM).

As to `CNc1cccc2c1[nH]c1nc(Sc3cnc4cccnc4c3)nc(N3CC(N)C4(CC4)C3)c12` (centres unmarked) [1.27], the MIC against E. coli ATCC 25922 was 1 µg/mL (≈ 2.13 µM); with S. aureus ATCC 13709, ≤ 0.5 µg/mL.

For `CNc1cc(F)cc2c1[nH]c1nc(Oc3cnc(N4CC(S(=O)(=O)CC5CC5)C4)nc3)nc(N3CC4C(N)C4C3)c12` (centres unmarked) [4.337], the “MIC Ec” value with E. coli ATCC 25922 was 1 µg/mL (≈ 1.73 µM). For the same compound, in the assay on S. aureus ATCC 13709, the “MIC Sa” value is ≤0.5 µg/mL.

Regarding `CNc1cc(F)cc2c1[nH]c1nc(Oc3cnc(C)nc3)nc(N3CC4NCCOC4C3)c12` (centres unmarked) [4.114], the “MIC Ec” value against E. coli ATCC 25922 amounted to 2 µg/mL (≈ 4.44 µM). In addition, the “MIC Sa” value in the assay with S. aureus ATCC 13709 is ≤0.5 µg/mL.

On to `CNc1cccc2c1[nH]c1nc(Sc3cnc4ccc[n+]([O-])c4c3)nc(N3CC(CN)C3)c12` [1.20], for which the figures for the minimum inhibitory concentration (MIC) against E. coli ATCC 25922 and in the assay on S. aureus ATCC 13709 were 16 µg/mL (≈ 34.9 µM) and 4 µg/mL (≈ 8.72 µM), respectively.

Turning to `CNc1ncc(Oc2nc(N3CCC4(CC4N)C3)c3c(n2)[nH]c2c(NC)cc(F)cc23)cn1` (centres unmarked) [4.220], the MIC with E. coli ATCC 25922 and against S. aureus ATCC 13709 was ≤ 0.5 µg/mL each time.

For the compound `CNc1cc(F)cc2c1[nH]c1nc(Oc3cnc(N(C)C)nc3)nc(N3CCC(N)C3)c12` (centres unmarked) [4.207], the “MIC Ec” value against E. coli ATCC 25922 is ≤0.5 µg/mL. In addition, in the assay on S. aureus ATCC 13709, the “MIC Sa” value is ≤0.5 µg/mL.

Regarding `CNc1cc(F)cc2c1[nH]c1nc(Oc3cnc(C)nc3)nc(-c3ccc(Cl)c(N)c3)c12` [4.419], the minimum inhibitory concentration (MIC) in the assay on E. coli ATCC 25922 was > 16 µg/mL; in the assay on S. aureus ATCC 13709, ≤ 0.5 µg/mL.

Turning to `CNc1cc(F)c(F)c2c1[nH]c1nc(Oc3cnc(C)nc3)nc(N3CC4(CCC4N)C3)c12` (centres unmarked) [5.1], the “MIC Ec” value against E. coli ATCC 25922 was ≤0.5 µg/mL. Further, the “MIC Sa” value with S. aureus ATCC 13709 was ≤0.5 µg/mL.

With `CNc1cc(F)cc2c1[nH]c1nc(Oc3cncc(Cl)c3)nc(N3CC4CC3CC4N)c12` (centres unmarked) [4.279], the “MIC Ec” value with E. coli ATCC 25922 was ≤0.5 µg/mL. For the same compound, the “MIC Sa” value against S. aureus ATCC 13709 is ≤0.5 µg/mL.

For the compound `CNc1cccc2c1[nH]c1nc(Oc3cnc(C)nc3)nc(N3C[C@@H](N)C4(CC4)C3)c12` [3.48], the minimal inhibitory concentration (MIC) in the assay with E. coli ATCC 25922 stood at 8 µg/mL (≈ 19.2 µM); in the assay with S. aureus ATCC 13709, 2 µg/mL (≈ 4.8 µM).

`CNc1cc(F)cc2c1[nH]c1nc(Oc3cncnc3)nc(N3CC4CNC4C3)c12` (centres unmarked) [4.008]: the MIC in the assay on E. coli ATCC 25922 and against S. aureus ATCC 13709 was ≤ 0.5 µg/mL in each case.

Take `CNc1cc(F)cc2c1[nH]c1nc(Oc3cncc(Cl)c3)nc(N3CC4(CCC4N)C3)c12` (centres unmarked) [4.275]: the “MIC Ec” value in the assay on E. coli ATCC 25922 was ≤0.5 µg/mL. Also, the “MIC Sa” value in the assay with S. aureus ATCC 13709 was ≤0.5 µg/mL.

For `CNc1cccc2c1[nH]c1nc(Sc3cncc(S(=O)(=O)NCCO)c3)nc(N3CC4C(N)C4C3)c12` (centres unmarked) [1.42], the minimum inhibitory concentration (MIC) is 32 µg/mL (≈ 60.8 µM) in the assay on E. coli ATCC 25922 and 8 µg/mL (≈ 15.2 µM) in the assay on S. aureus ATCC 13709.

`CNc1cc(F)cc2c1[nH]c1nc(Oc3cnc(C)nc3)nc(N3CCC(F)(CN)CC3)c12` [4.159]: the minimal inhibitory concentration (MIC) with E. coli ATCC 25922 and in the assay with S. aureus ATCC 13709 was ≤ 0.5 µg/mL each time.

With `CNc1cc(F)cc2c1[nH]c1nc(Oc3ccc(CO)nc3)nc(N3CC4CC3C[C@@H]4N)c12` (some centres unmarked) [4.392], the results for the MIC in the assay with E. coli ATCC 25922 and against S. aureus ATCC 13709 were > 16 µg/mL and 16 µg/mL (≈ 35.6 µM), respectively.

Regarding `CNc1cc(F)cc2c1[nH]c1nc(Oc3cnc(CO)nc3)nc(N3CC4C(N)CC4(C)C3)c12` (centres unmarked) [4.389], in the assay with E. coli ATCC 25922, the “MIC Ec” value was ≤0.5 µg/mL. For the same compound, the “MIC Sa” value against S. aureus ATCC 13709 is ≤0.5 µg/mL.

In the case of `CNc1cc(F)cc2c1[nH]c1nc(Oc3cncc(SC)c3)nc(N3C[C@H](N)C4(CC4)C3)c12` [4.354], the MIC in the assay with E. coli ATCC 25922 is 1 µg/mL (≈ 2.15 µM); with S. aureus ATCC 13709 it was ≤ 0.5 µg/mL.

In the case of `CNc1cc(F)cc2c1[nH]c1nc(Oc3cnc(C)nc3)nc(N3CC(N)CC3C)c12` (centres unmarked) [4.115], the “MIC Ec” value with E. coli ATCC 25922 came out at 8 µg/mL (≈ 18.9 µM). The “MIC Sa” value in the assay with S. aureus ATCC 13709 is 1 µg/mL (≈ 2.37 µM).

For the compound `CNc1nccc2c1[nH]c1nc(Oc3cncnc3)nc(N3CC[C@@H](N)C3)c12` [7.02], the MIC is 32 µg/mL (≈ 84.8 µM) in the assay on E. coli ATCC 25922 and > 64 µg/mL in the assay with S. aureus ATCC 13709.

The MIC is the least concentration at which growth counts as inhibited. Low readings indicate inhibition by little substance, high ones a need for much substance.
